Patent publication US20130158132A1, “Formulation Solution Adapted To Prolong Plasma Times Of Drugs In Mammals Including Humans” (priority 2011, published 2013)

Legend:
[1] = Decoquinate concentration in mouse plasma and liver, with and without prolongation solution; format: in vivo; design: concentration of the drug in plasma / concentration of the drug in liver: unit not given here; details: mice; for concentration of the drug in liver / concentration of the drug in plasma: 0.5 ml injected
Procedure: (§1) The following examples used laboratory rats and mice.
Decoquinate solution was mixed with two solutions: one with the prolongation solution of Example 1 and one without the prolongation solution. Each solution contained an identical and normal dosage of the drug. In both cases, 0.5 ml of solution was injected into mice of approximately identical weight. The concentration of the drug in plasma and liver was chected by high performance then layer chromatography in mouse liver and plasma.

[2] = Glipizide serum level in rats after one-time administration; format: in vivo; details: rat, other: injected, about 0.25 mg in 3 ml prolongation solution of Example 1, injected
Procedure: as §1
Serum testing was conducted after one-time initial administration.

[3] = single 5 mg dose; cited from earlier work
[4] = rat, in vivo, 24 h
[5] = after 24 hours; cited from earlier work
[6] = in vivo; details: rat, Quinine serum level
[7] = Rifampicin serum level in rats after one-time administration; format: in vivo; details: for concentration at 14 h / concentration at 32 h: serum
Procedure: as §1
Serum testing was conducted after one-time initial administration to rats. The Rifampicin level remained:
Control test using water alone on 8 mg/rat. […] Thus, the prolongation solution is effective at reduced drug administration levels.

[8] = human, single 600 mg dose; cited from earlier work
[9] = single 2.0 gram dose, cited from earlier work
[10] = NE-No Prolongation Solution, 0.5 hours
[11] = NE-No Prolongation Solution, 1 hour
[12] = NE-No Prolongation Solution, 2 hours
[13] = NE-No Prolongation Solution, 4 hours
[14] = NE-No Prolongation Solution, 8 hours
[15] = NE-No Prolongation Solution, 24 hours
[16] = PF-Prolongation Solution of Example 1, 0.5 hours
[17] = PF-Prolongation Solution of Example 1, 1 hour
[18] = PF-Prolongation Solution of Example 1, 2 hours
[19] = PF-Prolongation Solution of Example 1, 4 hours
[20] = PF-Prolongation Solution of Example 1, 8 hours
[21] = PF-Prolongation Solution of Example 1, 24 hours
[22] = rat, about 18 mg in 3 ml prolongation solution of Example 1, one-time administration
[23] = about 8 mg/rat with prolongation solution

With `CCCCCCCCCCOc1cc2c(O)c(C(=O)OCC)cnc2cc1OCC` [Decoquinate] the “concentration of the drug in liver” value [1, 10] was 313860, the “concentration of the drug in plasma” value [1, 10] was 25565 and the “concentration of the drug in liver” value [1, 11] was 430820. For the same compound, the “concentration of the drug in plasma” value [1, 11] was 49911, the “concentration of the drug in liver” value [1, 12] was 317950 and the “concentration of the drug in plasma” value [1, 12] was 43941. The “concentration of the drug in liver” value [1, 13] was 323180, the “concentration of the drug in plasma” value [1, 13] was 35427 and the “concentration of the drug in liver” value [1, 14] was 177470. The “concentration of the drug in plasma” value [1, 14] was 25131, the “concentration of the drug in liver” value [1, 15] was 7014 and the “concentration of the drug in plasma” value [1, 15] was 697. For the same compound, the “concentration of the drug in liver” value [1, 16] was 149675, the “concentration of the drug in plasma” value [1, 16] was 15213 and the “concentration of the drug in liver” value [1, 17] was 223565. For the same compound, the “concentration of the drug in plasma” value [1, 17] was 24638, the “concentration of the drug in liver” value [1, 18] was 191725 and the “concentration of the drug in plasma” value [1, 18] was 27350. The “concentration of the drug in liver” value [1, 19] was 219615, the “concentration of the drug in plasma” value [1, 19] was 29213 and the “concentration of the drug in liver” value [1, 20] was 181015. The “concentration of the drug in plasma” value [1, 20] was 27882, the “concentration of the drug in liver” value [1, 21] was 5549 and the “concentration of the drug in plasma” value [1, 21] was 457. For the same compound, the “drop of Decoquinate level between 1 and 8 hours in plasma” value ([1]; no prolongation solution) was 50%, the “drop of Decoquinate level between 1 and 8 hours in liver” value ([1]; no prolongation solution, compared with the 50% drop in plasma) was “almost as much” and the “change in the level of Decoquinate between 1 and 8 hours” value ([1]; prolongation solution used) was “relatively little change”. For the same compound, the “change of concentration of drug in plasma and liver for eight hours” value ([1]; using the prolongation solution, compared to control) was “did not change”.

In the case of `Cc1cnc(C(=O)NCCc2ccc(S(=O)(=O)NC(=O)NC3CCCCC3)cc2)cn1` [Glipizide], the concentration at 26 h ([2]; 26 hours) is given as 570 ng/mL, the concentration at 52 h ([2]; 52 hours) is given as 1400 ng/mL and the “Peak serum level of glipizide” value [3] is given as 0.1 to 0.5 µg/mL. The “time of peak serum level post dose” value [3] was 1.6 h.

In the case of `C=C[C@H]1C[N@@]2CC[C@H]1C[C@H]2[C@H](O)c1ccnc2ccc(OC)cc12` [Quinine], the Quinine serum level [4] is listed as 2400 ng/mL, the “plasma level after termination of quinine therapy” value [5] is listed as “barely detectable” and the concentration at 45 min [6] is listed as 4600 ng/mL. It also gave a concentration at 4 h [6] of 3000 ng/mL, a concentration at 9 h [6] of 1800 ng/mL and a concentration at 13 h [6] of 1600 ng/mL. It also gave a concentration at 15 h [6] of 2100 ng/mL, a concentration at 16 h [6] of 230 ng/mL and a concentration at 24 h [6] of 1400 ng/mL.

With `CO[C@H]1/C=C/O[C@@]2(C)Oc3c(C)c(O)c4c(O)c(c(/C=N/N5CCN(C)CC5)c(O)c4c3C2=O)NC(=O)/C(C)=C\C=C\[C@H](C)[C@H](O)[C@@H](C)[C@@H](O)[C@@H](C)[C@H](OC(C)=O)[C@@H]1C` [Rifampicin] the Rifampicin serum level ([7]; control using water alone, 8 mg/rat, after 14 hours) was “not being detected”, the concentration at 14 h [7, 22] was 19000 ng/mL and the concentration at 32 h [7, 22] was 3500 ng/mL. The concentration at 14 h [7, 23] was 14000 ng/mL, the concentration at 32 h [7, 23] was 8500 ng/mL and the “Peak plasma levels of Rifampicin” value [8] was 3 to 13 µg/mL. For the same compound, the “time of peak plasma level post dose” value [8] was “approximately 1.8 hours”.

In the case of `Cc1noc(NS(=O)(=O)c2ccc(N)cc2)c1C` [sulfisoxazole], the “mean time of peak plasma concentration” value [9] is listed as 2.5 h and the “original dose excreted in the urine” value ([9]; within 48 hours) is listed as “About 97%”.
